Reference: patent publication US11352408B2, “Antitumor peptide having PD-1 signal sequence and utilization thereof” (TOAGOSEI CO.,LTD., priority 2017, dated 2022)
Read-outs that look alike come from different tables or passages of the source. Where a SMILES comes first, the peptide text is derived from it.

Key:
[1] = test system: human non small cell lung cancer cell line (HCC827); test: Antitumor activity evaluation, cell viability by Cell Counting Kit-8 (WST-8); type: cell-based
Procedure: (§1) The cell viability (%) was determined as indicated hereinbelow.

[2] = test system: human non small cell lung cancer cell line (NCI-H2444); test: as above; type: cell-based
Procedure: as §1

[3] = test system: human alveolar basal epithelial adenocarcinoma cell line (A549); conditions: 48 hours, relative to medium without peptide = 100%
Procedure: (§2) Some of the sample peptides synthesized in Test Example 1 were evaluated for antitumor activity on several types of cultured tumor cells.
(§3) Specifically, test tumor cells used were currently commercially available human non small cell lung cancer cell line (NCI-H2444), human non small cell lung cancer cell line (HCC827), human alveolar basal epithelial adenocarcinoma cell line (A549), human small cell lung cancer cell line (NCI-H446), human melanoma cell line (A2058) and human breast adenocarcinoma cell line (MDA-MB-231). As a comparison, a commercially available cultured normal human mammary epithelial cell line (MCF-12F) was used.
The above six cell lines were cultured in each of the media indicated above and the number of cells was adjusted to be approximately 5×10^3 per well in a 96-well plate. The amount of the medium was 100 μL per well. […]
Thereafter, peptide-containing test media were respectively prepared for each concentration so that the concentration of any of the sample peptides to be evaluated was either 12.5 μM or 25 μM, and were supplied to wells (namely, wells after pre-incubation above) in which cells to be evaluated were cultured at 90 μL per well. […]
The number (n) of test wells per each peptide concentration in the test section to which peptides were added was 3. […] The cell viability (%) was determined as indicated hereinbelow. […]

[4] = test system: tumor cells tested in the present Test Example; test: Evaluation test on antitumor activities of synthetic peptides, overall finding; type: cell-based, human; conditions: compared to comparative samples 3 to 5
Procedure: as §1

[5] = test system: human small cell lung cancer cell line (NCI-H446); type: cell-based; conditions: 48 h
Procedure: as §1

[6] = test system: human breast adenocarcinoma cell line (MDA-MB-231); type: cell-based; conditions: 48 h
Procedure: as §2, §3
(§4) (2) human melanoma cell line (A2058) and human breast adenocarcinoma cell line (MDA-MB-231):
(§5) DMEM medium (product from Wako Pure Chemical Industries, Ltd.) containing 2 mM L-glutamine, 0.1 mM non-essential amino acids, 50 units/mL penicillin, 50 μg/mL streptomycin and 10% FBS; and
(§6) The above six cell lines were cultured in each of the media indicated above and the number of cells was adjusted to be approximately 5×10^3 per well in a 96-well plate. The amount of the medium was 100 μL per well.
(§7) The 96-well plate was placed in a CO2 incubator and pre-incubated under conditions of 37° C. and 5% CO2 for approximately one day (21 hours to 24 hours).
(§8) Thereafter, peptide-containing test media were respectively prepared for each concentration so that the concentration of any of the sample peptides to be evaluated was either 12.5 μM or 25 μM, and were supplied to wells (namely, wells after pre-incubation above) in which cells to be evaluated were cultured at 90 μL per well. The 96-well plate was placed back in the CO2 incubator and incubated under conditions of 37° C. and 5% CO2 for 48 hours.
(§9) The number (n) of test wells per each peptide concentration in the test section to which peptides were added was 3. Therefore, the values indicated in the result section in the table hereinbelow are averages of results obtained from 3 test wells. The cell viability (%) was determined as indicated hereinbelow.
(§10) After a 48-hour incubation, the medium in the wells was replaced by 100 μL fresh medium without peptide, and 10 μL of a reagent for cell proliferation measurement “Cell Counting Kit-8” (product from Dojindo Laboratories) containing “water-soluble tetrazolium salt (WST-8)” as a chromogenic reagent was added to each well. The 96-well plate was then placed back in the CO2 incubator and incubated under conditions of 37° C. and 5% CO2 for 1.5 hours to 2 hours.
(§11) After completion of the incubation, the cell culture medium to which the reagent was added was recovered and the cell viability (%) was evaluated by a colorimetric method in which the absorbance at a wavelength of 450 nm (the value corrected with the absorbance at a wavelength 650 nm: A450-A650) due to reduction of the tetrazolium salt was measured. Specifically, the cell viability (%) of each test cell line was calculated from the measured absorbance as a relative value to the measured value (measured absorbance) in the comparative test section in which the incubation over 48 hours as above was carried out only with a medium without peptide, that was regarded as 100% of the cell viability.

[7] = test system: human melanoma cell line (A2058); type: cell-based; conditions: 48 h
Procedure: as §2, §3, §4, §5, §6, §7, §8, §9, §10, §11

in vitro = type: cell-based; conditions: human
Procedure: (3) cultured normal human mammary epithelial cell line (MCF-12F):
DMEM/F12 medium (product from Wako Pure Chemical Industries, Ltd.) containing 20 ng/mL recombinant EGF, 10 μg/mL insulin, 0.5 μg/mL hydrocortisone and 10% FBS.
as §1

Structure (SMILES): CC(C)C[C@H](NC(=O)[C@@H](NC(=O)[C@H](CCCNC(=N)N)NC(=O)[C@H](CCCCN)NC(=O)[C@@H](N)CCCCN)[C@@H](C)O)C(=O)N[C@@H](CCCNC(=N)N)C(=O)N[C@@H](CCCCN)C(=O)N[C@@H](CC(N)=O)C(=O)N[C@@H](CC(=O)O)C(=O)N[C@@H](CCCNC(=N)N)C(=O)N[C@@H](CCCCN)C(=O)N[C@@H](CCCCN)C(=O)N[C@@H](CCCNC(=N)N)C(N)=O [Sample 5, KKRTLRKNDRKKR-CONH2] (H-KKRTLRKNDRKKR-NH2; N-terminus assumed)
- Cell viability (%) ([1]; human, 48 h, 12.5 µM): 106.7%
- Cell viability (%) ([1]; human, 48 h, 25 µM): 106.5%

Structure (SMILES): CC[C@H](C)[C@H](NC(=O)[C@H](CCC(N)=O)NC(=O)[C@@H](N)CCSC)C(=O)N1CCC[C@H]1C(=O)N[C@@H](CCC(N)=O)C(=O)N[C@@H](C)C(=O)N1CCC[C@H]1C(=O)N[C@@H](Cc1c[nH]c2ccccc12)C(=O)N1CCC[C@H]1C(=O)N[C@H](C(=O)N[C@H](C(=O)N[C@@H](Cc1c[nH]c2ccccc12)C(=O)N[C@@H](C)C(=O)N[C@H](C(=O)N[C@@H](CC(C)C)C(=O)N[C@@H](CCC(N)=O)C(=O)N[C@@H](CC(C)C)C(=O)NCC(=O)N[C@@H](Cc1c[nH]c2ccccc12)C(=O)N[C@@H](CCCNC(=N)N)C(=O)N[C@@H](CCCNC(=N)N)C(=O)N[C@@H](CCCCN)C(=O)N[C@@H](CCCCN)C(=O)N[C@@H](CCCNC(=N)N)C(=O)N[C@@H](CCCNC(=N)N)C(=O)N[C@@H](CCC(N)=O)C(=O)N[C@@H](CCCNC(=N)N)C(=O)N[C@@H](CCCNC(=N)N)C(=O)N[C@@H](CCCNC(=N)N)C(N)=O)C(C)C)C(C)C)C(C)C [Sample 2] (H-MQIPQAPWPVVWAVLQLGWRRKKRRQRRR-NH2; N-terminus assumed)
- Cell viability (%) ([1]; HCC827, test peptide concentration 12.5 μM, 48 hours, relative to medium without peptide = 100%): 62.9%
- Cell viability (%) ([1]; HCC827, test peptide concentration 25.0 μM, 48 hours, relative to medium without peptide = 100%): 4.9%
- Cell viability (%) ([2]; NCI-H2444, test peptide concentration 12.5 μM, 48 hours, relative to medium without peptide = 100%): 50.4%
- Cell viability (%) ([2]; NCI-H2444, test peptide concentration 25.0 μM, 48 hours, relative to medium without peptide = 100%): 3.6%
- Cell viability (%) ([3]; test peptide concentration 12.5 μM): 52.4%
- Cell viability (%) ([3]; test peptide concentration 25.0 μM): 9.1%
- antitumor activity (inhibitory activity of proliferation of tumor cells) [4]: excellent antitumor activity

Structure (SMILES): CC[C@H](C)[C@H](NC(=O)[C@H](CCCNC(=N)N)NC(=O)[C@@H](N)CCSC)C(=O)N[C@@H](Cc1ccccc1)C(=O)N[C@@H](C)C(=O)N[C@H](C(=O)N[C@@H](Cc1ccccc1)C(=O)N[C@H](C(=O)N[C@@H](Cc1ccccc1)C(=O)N[C@@H](CCSC)C(=O)N[C@H](C(=O)N[C@@H](Cc1ccc(O)cc1)C(=O)N[C@@H](Cc1c[nH]c2ccccc12)C(=O)N[C@@H](Cc1c[nH]cn1)C(=O)N[C@@H](CC(C)C)C(=O)N[C@@H](CC(C)C)C(=O)N[C@@H](CC(N)=O)C(=O)N[C@@H](C)C(=O)N[C@@H](CCCCN)C(=O)N[C@@H](CCCCN)C(=O)N[C@@H](CCCNC(=N)N)C(=O)N[C@H](C(=O)N[C@@H](CC(C)C)C(=O)N[C@@H](CCCNC(=N)N)C(=O)N[C@@H](CCCCN)C(=O)N[C@@H](CC(N)=O)C(=O)N[C@@H](CC(=O)O)C(=O)N[C@@H](CCCNC(=N)N)C(=O)N[C@@H](CCCCN)C(=O)N[C@@H](CCCCN)C(=O)N[C@@H](CCCNC(=N)N)C(N)=O)[C@@H](C)O)[C@@H](C)O)[C@@H](C)CC)C(C)C [Sample 3, reference compound] (H-MRIFAVFIFMTYWHLLNAKKRTLRKNDRKKR-NH2; N-terminus assumed)
- Cell viability (%) ([1]; human, 48 h, 12.5 µM): 105.4%
- Cell viability (%) ([1]; human, 48 h, 25 µM): 120.6%
- Cell viability (%) ([2]; human, 48 h, 12.5 µM): 106.3%
- Cell viability (%) ([2]; human, 48 h, 25 µM): 87.7%
- Cell viability (%) ([5]; 12.5 µM): 67.9%
- Cell viability (%) ([5]; 25 µM): 56.7%
- Cell viability (%) ([6]; 12.5 µM): 89.3%
- Cell viability (%) ([6]; 25 µM): 83.7%
- Cell viability (%) ([7]; 12.5 µM): 100.9%
- Cell viability (%) ([7]; 25 µM): 87.5%
- viability at 48 h, 12.5 µM (in vitro): 87.3%
- viability at 48 h, 25 µM (in vitro): 81.7%

Structure (SMILES): CC[C@H](C)[C@H](NC(=O)[C@H](CCC(N)=O)NC(=O)[C@@H](N)CCSC)C(=O)N1CCC[C@H]1C(=O)N[C@@H](CCC(N)=O)C(=O)N[C@@H](C)C(=O)N1CCC[C@H]1C(=O)N[C@@H](Cc1c[nH]c2ccccc12)C(=O)N1CCC[C@H]1C(=O)N[C@H](C(=O)N[C@H](C(=O)N[C@@H](Cc1c[nH]c2ccccc12)C(=O)N[C@@H](C)C(=O)N[C@H](C(=O)N[C@@H](CC(C)C)C(=O)N[C@@H](CCC(N)=O)C(=O)N[C@@H](CC(C)C)C(=O)NCC(=O)N[C@@H](Cc1c[nH]c2ccccc12)C(=O)N[C@@H](CCCNC(=N)N)C(=O)N[C@@H](CCCCN)C(=O)N[C@@H](CCCCN)C(=O)N[C@@H](CCCNC(=N)N)C(=O)N[C@H](C(=O)N[C@@H](CC(C)C)C(=O)N[C@@H](CCCNC(=N)N)C(=O)N[C@@H](CCCCN)C(=O)N[C@@H](CC(N)=O)C(=O)N[C@@H](CC(=O)O)C(=O)N[C@@H](CCCNC(=N)N)C(=O)N[C@@H](CCCCN)C(=O)N[C@@H](CCCCN)C(=O)N[C@@H](CCCNC(=N)N)C(N)=O)[C@@H](C)O)C(C)C)C(C)C)C(C)C [Sample 1] (H-MQIPQAPWPVVWAVLQLGWRKKRTLRKNDRKKR-NH2; N-terminus assumed)
- Cell viability (%) ([1]; human, 48 h, 12.5 µM): 49.8%
- Cell viability (%) ([1]; human, 48 h, 25 µM): 11.8%
- Cell viability (%) ([2]; human, 48 h, 12.5 µM): 59.6%
- Cell viability (%) ([2]; human, 48 h, 25 µM): 6.8%
- Cell viability (%) ([5]; 12.5 µM): 2.5%
- Cell viability (%) ([5]; 25 µM): 0.5%
- Cell viability (%) ([6]; 12.5 µM): 63.1%
- Cell viability (%) ([6]; 25 µM): 9.9%
- Cell viability (%) ([7]; 12.5 µM): 50.4%
- Cell viability (%) ([7]; 25 µM): 6.7%
- viability at 48 h, 12.5 µM (in vitro): 97.4%
- viability at 48 h, 25 µM (in vitro): 62.3%
- antitumor activity (inhibitory activity of proliferation of tumor cells) [4]: excellent antitumor activity

Structure (SMILES): CC[C@H](C)[C@H](NC(=O)[C@H](CC(C)C)NC(=O)[C@H](CC(C)C)NC(=O)[C@H](CCSC)NC(=O)[C@H](CCC(N)=O)NC(=O)[C@H](CCC(N)=O)NC(=O)[C@H](CCC(N)=O)NC(=O)[C@@H](NC(=O)[C@@H](NC(=O)[C@@H](NC(=O)[C@@H]1CCCN1C(=O)[C@@H]1CCCN1C(=O)[C@H](Cc1c[nH]c2ccccc12)NC(=O)[C@H](Cc1c[nH]c2ccccc12)NC(=O)[C@H](Cc1c[nH]c2ccccc12)NC(=O)[C@@H]1CCCN1)C(C)C)C(C)C)C(C)C)C(=O)NCC(=O)N[C@@H](C)C(=O)N[C@@H](C)C(=O)N[C@@H](CCCNC(=N)N)C(=O)N[C@@H](CCCCN)C(=O)N[C@@H](CCCCN)C(=O)N[C@@H](CCCNC(=N)N)C(=O)N[C@H](C(=O)N[C@@H](CC(C)C)C(=O)N[C@@H](CCCNC(=N)N)C(=O)N[C@@H](CCCCN)C(=O)N[C@@H](CC(N)=O)C(=O)N[C@@H](CC(=O)O)C(=O)N[C@@H](CCCNC(=N)N)C(=O)N[C@@H](CCCCN)C(=O)N[C@@H](CCCCN)C(=O)N[C@@H](CCCNC(=N)N)C(N)=O)[C@@H](C)O [Sample 4] (H-PWWWPPVVVQQQMLLIGAARKKRTLRKNDRKKR-NH2; N-terminus assumed)
- Cell viability (%) ([1]; human, 48 h, 12.5 µM): 110.9%
- Cell viability (%) ([1]; human, 48 h, 25 µM): 102.6%
